Source: patent US20260092061A1, “COMPOUNDS FOR TARGETED PROTEIN DEGRADATION” (Amphista Therapeutics Limited, priority 2022, published 2026)
Like-named read-outs stand apart in the source and are kept apart here.

Biological target: T1, BRD9 (Homo sapiens, UniProt Q9H8M2)
T1 sequence (Q9H8M2 1-597): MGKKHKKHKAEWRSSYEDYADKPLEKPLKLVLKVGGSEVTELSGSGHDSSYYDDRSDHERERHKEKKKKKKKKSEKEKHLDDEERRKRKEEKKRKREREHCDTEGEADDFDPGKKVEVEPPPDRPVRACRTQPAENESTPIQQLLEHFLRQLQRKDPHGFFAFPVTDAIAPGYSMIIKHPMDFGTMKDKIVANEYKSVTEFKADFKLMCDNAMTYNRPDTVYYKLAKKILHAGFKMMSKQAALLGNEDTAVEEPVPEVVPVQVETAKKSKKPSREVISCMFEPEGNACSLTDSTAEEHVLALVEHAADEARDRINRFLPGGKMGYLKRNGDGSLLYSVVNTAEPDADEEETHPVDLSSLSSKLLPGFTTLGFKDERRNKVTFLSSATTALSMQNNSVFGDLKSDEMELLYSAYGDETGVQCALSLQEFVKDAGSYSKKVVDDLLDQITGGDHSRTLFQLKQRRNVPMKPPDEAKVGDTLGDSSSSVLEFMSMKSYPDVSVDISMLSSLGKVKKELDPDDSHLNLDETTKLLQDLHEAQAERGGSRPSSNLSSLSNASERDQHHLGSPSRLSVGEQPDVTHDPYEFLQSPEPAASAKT
Assay: Degradation of BRD9 (IF), immunofluorescence in MV4-11 cells, 24 hours (Assay Protocol 2)
Type: cell-based
Design: A suspension of MV4-11 cells (ATCC CRL-9591) was prepared; host or cells: MV4-11
Settings: BRD9 degradation; for DC50: Assay protocol 2, read-out: DC50
Procedure, shortened: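 MV4-11 cells treated with compound 24 h at 37° C., then fixed, permeabilised and immunostained for BRD9 (anti-BRD9 E4Q3F, Alexa 647 secondary, Hoechst counterstain). High-content imaging quantified nuclear BRD9 signal; % BRD9 remaining normalised to DMSO and 100 nM CFT-8634 controls.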

[1] = MV4-11, Assay protocol 2, read-out: Dmax

Compound	DC50	Dmax [1]	Dmax (MV4-11, Table 4, determined according to Assay Protocol 2, read-out: Dmax^2)
CC[C@@H]1c2cccc(CN3CCN(Cc4c(OC)cc(-c5cn(C)c(=O)c(C)c5C)cc4OC)C4(CC4)C3)c2CCN1C(=O)/C(C#N)=C/C(C)(C)C (single isomer, unassigned) [Compound C91, (E/Z)-2-(5-((4-(2,6-dimethoxy-4-(1,4,5-trimethyl-6-oxo-1,6-dihydropyridin-3-yl)benzyl)-4,7-diazaspiro[2.5]octan-7-yl)methyl)-1-ethyl-1,2,3,4-tetrahydroisoquinoline-2-carbonyl)-4,4-dimethylpent-2-enenitrile]	< 1.25 nM	> 75%	
CC[C@H]1c2cccc(CN3CCN(Cc4c(OC)cc(-c5cn(C)c(=O)c(C)c5C)cc4OC)CC34CC4)c2CCN1C(=O)/C(C#N)=C/C(C)(C)CF (single isomer, unassigned) [Compound C92, (E/Z)-2-(5-((7-(2,6-dimethoxy-4-(1,4,5-trimethyl-6-oxo-1,6-dihydropyridin-3-yl)benzyl)-4,7-diazaspiro[2.5]octan-4-yl)methyl)-1-ethyl-1,2,3,4-tetrahydroisoquinoline-2-carbonyl)-5-fluoro-4,4-dimethylpent-2-enenitrile]		40 to 70%	
CC[C@@H]1c2cccc(CN3CCN(Cc4c(OC)cc(-c5cn(C)c(=O)c(C)c5C)cc4OC)CC34CC4)c2CCN1C(=O)/C(C#N)=C/C(C)(C)CF (single isomer, unassigned) [Compound C93, (E/Z)-2-(5-((7-(2,6-dimethoxy-4-(1,4,5-trimethyl-6-oxo-1,6-dihydropyridin-3-yl)benzyl)-4,7-diazaspiro[2.5]octan-4-yl)methyl)-1-ethyl-1,2,3,4-tetrahydroisoquinoline-2-carbonyl)-5-fluoro-4,4-dimethylpent-2-enenitrile]	< 1.25 nM	> 75%	
CCC1c2cccc(CN3CCN(Cc4c(OC)cc(-c5cn(C)c(=O)c(C)c5C)cc4OC)CC34CC4)c2CCN1C(=O)/C(C#N)=C/C(C)(C)C (single isomer, unassigned) [Compound C94, (E/Z)-2-(5-((7-(2,6-dimethoxy-4-(1,4,5-trimethyl-6-oxo-1,6-dihydropyridin-3-yl)benzyl)-4,7-diazaspiro[2.5]octan-4-yl)methyl)-1-ethyl-1,2,3,4-tetrahydroisoquinoline-2-carbonyl)-4,4-dimethylpent-2-enenitrile]	< 1.25 nM	> 75%	
COc1cc(-c2cn(C)c(=O)c(C)c2C)cc(OC)c1CN1CCN(Cc2ccc3c(c2)[C@H](C(C)C)N(C(=O)/C(C#N)=C/C(C)(C)CF)CC3)C2(CC2)C1 (single isomer, unassigned) [Compound C96, (E/Z)-2-(7-((7-(2,6-dimethoxy-4-(1,4,5-trimethyl-6-oxo-1,6-dihydropyridin-3-yl)benzyl)-4,7-diazaspiro[2.5]octan-4-yl)methyl)-1-isopropyl-1,2,3,4-tetrahydroisoquinoline-2-carbonyl)-5-fluoro 4,4-dimethylpent-2-enenitrile]	1.25 to 10 nM	> 75%	
COc1cc(-c2cn(C)c(=O)c(C)c2C)cc(OC)c1CN1CCN(Cc2ccc3c(c2)[C@@H](C(C)C)N(C(=O)/C(C#N)=C/C(C)(C)CF)CC3)C2(CC2)C1 (single isomer, unassigned) [Compound C97, (E/Z)-2-(7-((7-(2,6-dimethoxy-4-(1,4,5-trimethyl-6-oxo-1,6-dihydropyridin-3-yl)benzyl)-4,7-diazaspiro[2.5]octan-4-yl)methyl)-1-isopropyl-1,2,3,4-tetrahydroisoquinoline-2-carbonyl)-5-fluoro 4,4-dimethylpent-2-enenitrile]	10 to 25 nM	70 to 75%	
COc1cc(-c2cn(C)c(=O)c(C)c2C)cc(OC)c1CN1CCN(Cc2cccc3c2CCN(C(=O)/C(C#N)=C/C(C)(C)C)[C@H]3C2CC2)C2(CC2)C1 (single isomer, unassigned) [Compound C99, (E/Z)-2-(1-cyclopropyl-5-((7-(2,6-dimethoxy-4-(1,4,5-trimethyl-6-oxo-1,6-dihydropyridin-3-yl)benzyl)-4,7-diazaspiro[2.5]octan-4-yl)methyl)-1,2,3,4-tetrahydroisoquinoline-2-carbonyl)-4,4-dimethylpent-2-enenitrile]	< 1.25 nM	> 75%	
CCC[C@H]1c2cccc(CN3CCN(Cc4c(OC)cc(-c5cn(C)c(=O)c(C)c5C)cc4OC)CC34CC4)c2CCN1C(=O)/C(C#N)=C/C(C)(C)C (single isomer, unassigned) [Compound C100, (E/Z)-2-(5-((7-(2,6-dimethoxy-4-(1,4,5-trimethyl-6-oxo-1,6-dihydropyridin-3-yl)benzyl)-4,7-diazaspiro[2.5]octan-4-yl)methyl)-1-propyl-1,2,3,4-tetrahydroisoquinoline-2-carbonyl)-4,4-dimethylpent-2-enenitrile]	< 1.25 nM	> 75%	
CCC[C@@H]1c2cccc(CN3CCN(Cc4c(OC)cc(-c5cn(C)c(=O)c(C)c5C)cc4OC)CC34CC4)c2CCN1C(=O)/C(C#N)=C/C(C)(C)C (single isomer, unassigned) [Compound C101, (E/Z)-2-(5-((7-(2,6-dimethoxy-4-(1,4,5-trimethyl-6-oxo-1,6-dihydropyridin-3-yl)benzyl)-4,7-diazaspiro[2.5]octan-4-yl)methyl)-1-propyl-1,2,3,4-tetrahydroisoquinoline-2-carbonyl)-4,4-dimethylpent-2-enenitrile]	25 to 1000 nM	40 to 70%	
COc1cc(-c2cn(C)c(=O)c(C)c2C)cc(OC)c1CN1CCN(Cc2cccc3c2CCN(C(=O)/C(C#N)=C/C(C)(C)CF)C3C(C)C)CC12CC2 (single isomer, unassigned) [Compound C102, (E/Z)-2-(5-((4-(2,6-dimethoxy-4-(1,4,5-trimethyl-6-oxo-1,6-dihydropyridin-3-yl)benzyl)-4,7-diazaspiro[2.5]octan-7-yl)methyl)-1-isopropyl-1,2,3,4-tetrahydroisoquinoline-2-carbonyl)-5-fluoro-4,4-dimethylpent-2-enenitrile]	25 to 1000 nM	40 to 70%	
COc1cc(-c2cn(C)c(=O)c(C)c2C)cc(OC)c1CN1CCN(Cc2cccc3c2CCN(C(=O)/C(C#N)=C/C(C)(C)CF)[C@@H]3C(C)C)CC12CC2 (single isomer, unassigned) [Compound C103, (E/Z)-2-(5-((4-(2,6-dimethoxy-4-(1,4,5-trimethyl-6-oxo-1,6-dihydropyridin-3-yl)benzyl)-4,7-diazaspiro[2.5]octan-7-yl)methyl)-1-isopropyl-1,2,3,4-tetrahydroisoquinoline-2-carbonyl)-5-fluoro-4,4-dimethylpent-2-enenitrile]	< 1.25 nM	> 75%	
CC[C@H]1c2cccc(CN3CCN(Cc4c(OC)cc(-c5cn(C)c(=O)c(C)c5C)cc4OC)C4(CC4)C3)c2CCN1C(=O)/C(C#N)=C/C(C)(C)CF (single isomer, unassigned) [Compound C104, (E/Z)-2-(5-((4-(2,6-dimethoxy-4-(1,4,5-trimethyl-6-oxo-1,6-dihydropyridin-3-yl)benzyl)-4,7-diazaspiro[2.5]octan-7-yl)methyl)-1-ethyl-1,2,3,4-tetrahydroisoquinoline-2-carbonyl)-6-fluoro-4,4-dimethylpent-2-enenitrile]	25 to 1000 nM	40 to 70%	
CC[C@@H]1c2cccc(CN3CCN(Cc4c(OC)cc(-c5cn(C)c(=O)c(C)c5C)cc4OC)C4(CC4)C3)c2CCN1C(=O)/C(C#N)=C/C(C)(C)CF (single isomer, unassigned) [Compound C105, (E/Z)-2-(5-((4-(2,6-dimethoxy-4-(1,4,5-trimethyl-6-oxo-1,6-dihydropyridin-3-yl)benzyl)-4,7-diazaspiro[2.5]octan-7-yl)methyl)-1-ethyl-1,2,3,4-tetrahydroisoquinoline-2-carbonyl)-6-fluoro-4,4-dimethylpent-2-enenitrile]	< 1.25 nM	> 75%	
COc1cc(-c2cn(C)c(=O)c(C)c2C)cc(OC)c1CN1CCCN(Cc2ccc3c(c2)[C@@H](C)N(C(=O)/C(C#N)=C/C(C)(C)C)CC3)CC1 (single isomer, unassigned) [Compound C107]	10 to 25 nM	40 to 70%	
COc1cc(-c2cn(C)c(=O)c(C)c2C)cc(OC)c1CN1CCC(Oc2cccc3c2CCN(C(=O)/C(C#N)=C/C(C)(C)C)C3C)C1 (stereo in doubt) [Compound B134, (E)-2-(5-(((S)-1-(2,6-dimethoxy-4-(1,4,5-trimethyl-6-oxo-1,6-dihydropyridin-3-yl)benzyl)pyrrolidin-3-yl)oxy)-1-methyl-1,2,3,4-tetrahydroisoquinoline-2-carbonyl)-4,4-dimethylpent-2-enenitrile]	25 to 1000 nM	40 to 70%	
COc1cc(-c2cn(C)c(=O)c(C)c2C)cc(OC)c1CN(C)C1CCN(C(=O)/C(C#N)=C/c2cccc(C(F)(F)F)n2)CC1 [BRD9aa, (E/Z)-2-(4-((2,6-dimethoxy-4-(1,4,5-trimethyl-6-oxo-1,6-dihydropyridin-3-yl)benzyl)(methyl)amino)piperidine-1-carbonyl)-3-(6-(trifluoromethyl)pyridin-2-yl)acrylonitrile]			> 70%
